Test results published in US20260265305A1, “POLYPEPTIDE DERIVATIVE FOR ORAL DELIVERY” (Hangzhou Sciwind Biosciences Co., Ltd., priority 2023, published 2026).
pEC50: −log10 of the molar value. Numbered stars: 1 amine (or outer) side, 2 acyl side, 3 side chain; on linkers, the order of the positions; unused ones are H or OH. Peptide text beside a SMILES is read from it. * marks the point of attachment. C18 diacid = O=C(O)CCCCCCCCCCCCCCCCC(=O)*; C16 diacid = O=C(O)CCCCCCCCCCCCCCC(=O)*; γGlu = O=C(O)[C@H](CCC(=O)[*:2])N[*:1]

Assays:
[1] = Heat accelerated stability assay of polypeptide solutions (40° C., pH about 7.4), reversed phase chromatography; format: physicochemical; settings: 40° C.; for Concentration change on 7 d / Concentration change on 26 d: pH about 7.4, 1 mg/mL; for Concentration change on 7 d / Purity change on 7 d: Day 7; for Concentration change on 26 d / Purity change on 26 d: Day 26; for Purity change on 7 d / Purity change on 26 d: reversed phase chromatography 214 nm; for Purity change on 7 d: purity on 7 d − purity on 0 d; for Purity change on 26 d: purity on 26 d − purity on 0 d
Description: A stability test chamber (BINDER GmbH), a 0.01 mg-readability balance (METTLER TOLEDO), a pH meter (METTLER TOLEDO), a biosafety cabinet (ESCO), T2G-II small-sized motor-driven capping machine (Changsha zhongya pharmaceutical equipment co. LTD), a high-speed refrigerated centrifuge (Eppendorf), a sterilizer cabinet (Shinva Medical), Agilent 1260 high-performance liquid chromatographer, and Sepax Bio-C18 4.6*250 mm 3 μm 200 Å reversed phase column were used.
Reagents and consumables included: ultrapure water (18.2 MΩ, self-made), acetonitrile (HPLC grade), trifluoroacetic acid (HPLC grade), sodium dihydrogen phosphate (pharmaceutical grade, Hunan Jiudian Hongyang Pharmaceutical Co., Ltd), hydrochloric acid (pharmaceutical grade, Hunan Er-Kang Pharmaceutical Co., Ltd), sodium hydroxide (Analytical Reagent grade, Hushi®, Sinopharm Chemical Reagent Co., Ltd), vials, rubber stoppers, disposable syringes, and sterile filters.
The lyophilized powder (1 mg/mL) of the polypeptide derivative prepared in accordance with the method of Example 1 was mixed with sodium dihydrogen phosphate (1.42 mg/mL) and dissolved in ultrapure water in the indicated mass-volume ratios. After adjusting pH to about 7.4 with hydrochloric acid/sodium hydroxide, the solution was filtered into a sterilized vial in a clean bench using a 0.22 μm sterile filter. The vial was then capped and placed into the stability test chamber at 40° C. Detections were made on Days 7 (7d) and 26 (26d), and during the assay, changes in the characteristics and properties of the polypeptide were observed and recorded. The sample was then centrifuged for 3 min at 10,000 rpm at 4° C., and the supernatant was transferred to a liquid phase sample vial for detecting the concentration and purity of the polypeptides using liquid phase chromatography described as below, wherein the concentration of the polypeptide=peak area/injection volume/extinction coefficient/60×flow rate, and the purity of the polypeptide=target peak area/total peak area×100%.
Conditions of the reversed phase chromatography Flow rate: 1.0 ml/min; Autosampler temperature: 15° C.; Column temperature: 25° C.; Detection wavelengths: 280 nm and 214 nm; Mobile phase A: 100% H2O+0.05% TFA; Mobile phase B: 100% ACN; and Gradient of elution listed in Table 6: […]

[2] = target: T1, calcitonin receptor (hCTR) (Homo sapiens, UniProt P30988); assay: Calcitonin receptor agonism, CRE-luciferase assay in stably transfected CHO-K1/CALCR/Ga15 cells; format: cell-based; settings: incubation of 24 hours; Table 4; read-out: EC50, activity against the calcitonin receptor in cells
T1 construct: host or cells: CHO-K1/CALCR/Ga15 cells, further stably transfected with a CRE-luciferase plasmid
T1 sequence (P30988 25-474): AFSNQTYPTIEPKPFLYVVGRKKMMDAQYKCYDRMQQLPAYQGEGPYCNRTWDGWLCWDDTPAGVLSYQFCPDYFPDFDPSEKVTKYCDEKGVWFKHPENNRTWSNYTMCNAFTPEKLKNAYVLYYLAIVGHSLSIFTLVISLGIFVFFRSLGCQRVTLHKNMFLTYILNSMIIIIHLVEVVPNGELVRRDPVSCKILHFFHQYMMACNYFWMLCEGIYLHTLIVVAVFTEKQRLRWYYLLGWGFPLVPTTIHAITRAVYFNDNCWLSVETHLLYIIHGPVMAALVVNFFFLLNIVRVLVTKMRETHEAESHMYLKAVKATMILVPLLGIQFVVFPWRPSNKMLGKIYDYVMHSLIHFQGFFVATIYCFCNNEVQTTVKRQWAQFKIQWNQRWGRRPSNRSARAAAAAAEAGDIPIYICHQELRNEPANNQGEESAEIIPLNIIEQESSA

Concentration change on 7 d [1] | Concentration change on 26 d [1] [%] | Purity change on 7 d [1] | Purity change on 26 d [1] [%] | pEC50 [2] | Structure (SMILES)
−1.895% | −5.520 | −1.15% | −3.76 | 10.07 | CC(C)C[C@H](NC(=O)[C@H](CCCNC(=N)N)NC(=O)CNC(=O)[C@H](CC(C)C)NC(=O)[C@@H](NC(=O)[C@H](C)NC(=O)[C@@H](NC(=O)[C@H](CO)NC(=O)[C@H](CC(C)C)NC(=O)[C@H](CCC(N)=O)NC(=O)[C@H](CO)NC(=O)[C@H](C)NC(=O)[C@H](CC(=O)O)NC(=O)CCCCCCCCCCCCCCCCC(=O)O)[C@@H](C)O)C(C)C)C(=O)N[C@@H](CO)C(=O)N[C@@H](CC(=O)O)C(=O)N[C@@H](CCC(=O)O)C(=O)N[C@@H](CC(C)C)C(=O)N[C@@H](Cc1c[nH]cn1)C(=O)N[C@@H](CCCNC(=N)N)C(=O)N[C@@H](CC(C)C)C(=O)N[C@@H](CCC(N)=O)C(=O)N[C@@H](CC(=O)O)C(=O)N[C@@H](Cc1ccc(O)cc1)C(=O)N1CCC[C@H]1C(=O)N[C@@H](CCCNC(=N)N)C(=O)N[C@H](C(=O)N[C@@H](CC(=O)O)C(=O)N[C@H](C(=O)NCC(=O)N[C@@H](CO)C(=O)NCC(=O)N[C@@H](CO)C(=O)N1CCC[C@H]1C(N)=O)C(C)C)[C@@H](C)O [M13] ({C18 diacid}-DASQLSTAVLGRLSDELHRLQDYPRTDVGSGSP-NH2)
−2.280% | −7.796 | −1.67% | −4.82 | 9.92 | CC(C)C[C@H](NC(=O)[C@H](CCCNC(=N)N)NC(=O)CNC(=O)[C@H](CC(C)C)NC(=O)[C@@H](NC(=O)[C@H](C)NC(=O)[C@@H](NC(=O)[C@H](CO)NC(=O)[C@H](CC(C)C)NC(=O)[C@H](CCC(N)=O)NC(=O)[C@H](CO)NC(=O)[C@H](C)NC(=O)CC[C@H](NC(=O)CCCCCCCCCCCCCCC(=O)O)C(=O)O)[C@@H](C)O)C(C)C)C(=O)N[C@@H](CO)C(=O)N[C@@H](CC(=O)O)C(=O)N[C@@H](CCC(=O)O)C(=O)N[C@@H](CC(C)C)C(=O)N[C@@H](Cc1c[nH]cn1)C(=O)N[C@@H](CCCNC(=N)N)C(=O)N[C@@H](CC(C)C)C(=O)N[C@@H](CCC(N)=O)C(=O)N[C@@H](CC(=O)O)C(=O)N[C@@H](Cc1ccc(O)cc1)C(=O)N1CCC[C@H]1C(=O)N[C@@H](CCCNC(=N)N)C(=O)N[C@H](C(=O)N[C@@H](CC(=O)O)C(=O)N[C@H](C(=O)NCC(=O)N[C@@H](CO)C(=O)NCC(=O)N[C@@H](CO)C(=O)N1CCC[C@H]1C(N)=O)C(C)C)[C@@H](C)O [M9] ({C16 diacid-γGlu}-ASQLSTAVLGRLSDELHRLQDYPRTDVGSGSP-NH2)

Structure (SMILES) | Concentration change on 7 d [1] | Concentration change on 26 d [1] [%] | Purity change on 7 d [1] | Purity change on 26 d [1] [%] | pEC50 [2]
CC(C)C[C@H](NC(=O)[C@H](CCCNC(=N)N)NC(=O)CNC(=O)[C@H](CC(C)C)NC(=O)[C@@H](NC(=O)[C@H](C)NC(=O)[C@@H](NC(=O)[C@H](CO)NC(=O)[C@H](CC(C)C)NC(=O)[C@H](CCC(N)=O)NC(=O)[C@H](CO)NC(=O)[C@H](C)NC(=O)CC[C@H](NC(=O)CCCCCCCCCCCCCCCCC(=O)O)C(=O)O)[C@@H](C)O)C(C)C)C(=O)N[C@@H](CO)C(=O)N[C@@H](CC(=O)O)C(=O)N[C@@H](CCC(=O)O)C(=O)N[C@@H](CC(C)C)C(=O)N[C@@H](Cc1c[nH]cn1)C(=O)N[C@@H](CCCNC(=N)N)C(=O)N[C@@H](CC(C)C)C(=O)N[C@@H](CCC(N)=O)C(=O)N[C@@H](CC(=O)O)C(=O)N[C@@H](Cc1ccc(O)cc1)C(=O)N1CCC[C@H]1C(=O)N[C@@H](CCCNC(=N)N)C(=O)N[C@H](C(=O)N[C@@H](CC(=O)O)C(=O)N[C@H](C(=O)NCC(=O)N[C@@H](CO)C(=O)NCC(=O)N[C@@H](CO)C(=O)N1CCC[C@H]1C(N)=O)C(C)C)[C@@H](C)O [M8] ({C18 diacid-γGlu}-ASQLSTAVLGRLSDELHRLQDYPRTDVGSGSP-NH2) | No change (concentration change of less than 1% (denoted as “no change”)) | −6.190 | No change | −3.3 | 9.78
